Laboratory results as given in patent publication US20260008760A1, “DIPEPTIDYL PEPTIDASE 1 INHIBITORS AND USES THEREOF” (Insmed Incorporated, priority 2024, published 2026).
Read-outs that look alike come from different tables or passages of the source.

Legend:
human DPP1 enzyme = human DPP1 enzyme (Homo sapiens, UniProt P53634); assay: Human DPP1 Enzyme IC50 Assay; assay type: biochemical; design: was first proteolytically processed into its mature form using recombinant human cathepsin L; purchased R&D Systems
Sequence of human DPP1 enzyme (P53634 25-134 limits assumed): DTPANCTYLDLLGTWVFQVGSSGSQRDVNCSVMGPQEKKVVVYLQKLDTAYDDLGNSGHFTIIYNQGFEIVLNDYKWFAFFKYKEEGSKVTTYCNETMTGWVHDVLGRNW
Sequence of human DPP1 enzyme (P53634 231-394 limits assumed): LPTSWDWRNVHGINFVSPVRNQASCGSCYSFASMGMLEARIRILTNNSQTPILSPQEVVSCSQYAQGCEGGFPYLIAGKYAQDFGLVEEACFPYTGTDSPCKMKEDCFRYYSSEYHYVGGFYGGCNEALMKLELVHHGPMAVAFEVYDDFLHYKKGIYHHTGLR
Sequence of human DPP1 enzyme (P53634 395-463 limits assumed): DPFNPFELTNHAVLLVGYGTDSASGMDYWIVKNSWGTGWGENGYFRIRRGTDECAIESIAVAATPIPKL
In short: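 IC50 came from a four-parameter fit of activity relative to no-compound control, with fluorescence (Ex 350/Em 450 nm) read every 5 min for 90 min at 37 °C using 400 μM final H-Gly-Arg-AMC. Cathepsin L-matured human recombinant DPP1 was preincubated 10 min with compound at pH 6.0 (MES, DTT, 1% DMSO).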

DPP1 in HL-60 cells = DPP1 in HL-60 cells (Homo sapiens, UniProt P53634); assay: DPP1 Cell IC50 assay; assay type: cell-based; design: host or cells: HL-60 cells; details: 60 min pre-incubation, H-Gly-Phe-AFC substrate, average of n runs
Sequence of DPP1 in HL-60 cells (P53634 25-463): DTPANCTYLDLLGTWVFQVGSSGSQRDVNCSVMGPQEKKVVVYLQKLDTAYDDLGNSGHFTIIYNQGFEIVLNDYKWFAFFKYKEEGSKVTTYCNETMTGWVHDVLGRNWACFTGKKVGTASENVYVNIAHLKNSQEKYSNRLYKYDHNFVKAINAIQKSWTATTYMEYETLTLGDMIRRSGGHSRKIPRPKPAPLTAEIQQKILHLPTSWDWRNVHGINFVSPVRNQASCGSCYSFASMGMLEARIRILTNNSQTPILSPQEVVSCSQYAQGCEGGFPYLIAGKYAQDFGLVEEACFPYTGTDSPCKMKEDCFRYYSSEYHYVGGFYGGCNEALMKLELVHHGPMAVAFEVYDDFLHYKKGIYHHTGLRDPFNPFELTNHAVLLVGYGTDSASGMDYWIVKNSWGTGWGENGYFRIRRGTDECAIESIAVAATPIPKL
In short: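 Intracellular DPP1 activity read as AFC fluorescence (Ex/Em 400/505 nm) after 30 min with H-Gly-Phe-AFC (500 μM stock), following 60 min compound pre-incubation at 37° C with HL-60 cells at 5×10^5 live cells per mL in PBS. IC50 by 4-parameter fit against DMSO-only controls.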

[1] = activated recombinant human DPP1, 400 μM H-Gly-Arg-AMC, 10 minutes pre-incubation at 37° C., pH 6.0, average of n runs, read-out: Avg. IC50 (Human DPP1 enzyme IC50 value ranges)
[2] = read-out: Avg. IC50 (DPP1 Cell IC50 value ranges)

Row | SMILES | IC50 (human DPP1 enzyme; [1]) [nM] | IC50 (DPP1 in HL-60 cells; [2]) [nM] | IC50 (human DPP1 enzyme) [nM] | IC50 (DPP1 in HL-60 cells; Avg. IC50 (DPP1 Cell IC50 value ranges)) [nM]
1 | COC1CNC[C@@H](C(=O)N[C@H](C#N)Cc2ccc(-c3ccc4c(c3)CCC(=O)N4C)cc2)OC1 (stereo partly drawn) [Compound A146] | < 5 | < 1 | – | –
2 | Cn1c(=O)oc2cc3c(cc21)-c1cc(F)c(CC(C#N)NC(=O)[C@@H]2CNCCCCO2)cc1OC3 (stereo partly drawn) [Compound C5, (2S)—N-[(1S)-1-cyano-2-{4-fluoro-15-methyl-14-oxo-8,13-dioxa-15-azatetracyclo[8.7.0.0^{2,7}0.0^{12,16}]heptadeca-1(10),2,4,6,11,16-hexaen-5-yl}ethyl]-1,4-oxazocane-2-carboxamide] | < 5 | 1 to 2.5 | – | –
3 | N#C[C@H](Cc1ccc(-c2ccc3c(c2)C2(CN(C4COC4)C2)OC3=O)cc1)NC(=O)[C@@H]1CNCCCO1 [Compound 27, (2S)—N-[(1S)-1-cyano-2-{4-[1-(oxetan-3-yl)-3′-oxospiro[azetidine-3,1′-[2]benzofuran]-6′-yl]phenyl}ethyl]-1,4-oxazepane-2-carboxamide] | > 15 | > 2.5 | – | –
4 | N#C[C@H](Cc1ccc(-c2ccc3c(c2)CCS3)cc1)NC(=O)[C@@H]1CNCCCO1 [Compound A4, (2S)—N-[(1S)-1-cyano-2-[4-(2,3-dihydro-1-benzothiophen-5-yl)phenyl]ethyl]-1,4-oxazepane-2-carboxamide] | > 15 | > 2.5 | – | –
5 | N#C[C@H](Cc1ccc(-c2ccc3c(c2)C[C@]2(CCN(c4nccs4)C2)OC3)cc1)NC(=O)[C@@H]1CNCCCO1 [Compound I14] | > 15 | > 2.5 | – | –
6 | N#C[C@H](Cc1ccc(-c2cc3cnccn3c2)cc1)NC(=O)[C@@H]1CNCCCO1 [Compound A54] | > 15 | > 2.5 | – | –
7 | N#C[C@H](Cc1ccc(-c2ccc3c(c2)C2(CCN(C4COC4)CC2)COC3)cc1)NC(=O)[C@@H]1CNCCCO1 [Compound I5] | 5 to 15 | > 2.5 | – | –
8 | N#C[C@H](Cc1ccc(-c2csc(-c3nnc(N)o3)c2)cc1)NC(=O)[C@@H]1CNCCCO1 [Compound D2, (2S)—N-[(1S)-2-{4-[5-(5-amino-1,3,4-oxadiazol-2-yl)thiophen-3-yl]phenyl}-1-cyanoethyl]-1,4-oxazepane-2-carboxamide] | > 15 | > 2.5 | – | –
9 | CO[C@H]1CCO[C@H](C(=O)N[C@H](C#N)Cc2ccc(-c3ccc(C#N)cc3)cc2)CNC1 [Compound F1, (2S,6S)—N-[(1S)-1-cyano-2-{4′-cyano-[1,1′-biphenyl]-4-yl}ethyl]-6-methoxy-1,4-oxazocane-2-carboxamide] | > 15 | > 2.5 | – | –
10 | CO[C@@H]1CCNC[C@@H](C(=O)N[C@H](C#N)Cc2ccc(-c3cc4c(C)nc(C)cn4c3)cc2)OC1 [Compound A32, (2S,7R)—N-[(1S)-1-cyano-2-(4-{1,3-dimethylpyrrolo[1,2-a]pyrazin-7-yl}phenyl)ethyl]-7-methoxy-1,4-oxazocane-2-carboxamide] | > 15 | 1 to 2.5 | – | –
11 | Cn1nnc2cc3c(cc21)-c1cc(F)c(C[C@@H](C#N)NC(=O)[C@@H]2CNCCCO2)cc1OC3 [Compound C34] | < 5 | 1 to 2.5 | – | –
12 | Cn1c(=O)oc2ccc3c(c21)COc1cc(C[C@@H](C#N)NC(=O)[C@@H]2CNCCCO2)c(F)cc1-3 [Compound C2-A] | > 15 | 1 to 2.5 | – | –
13 | N#C[C@H](Cc1ccc(-c2cnc3c(c2)COCCN3)cc1)NC(=O)[C@@H]1CNCCCO1 [Compound A9, (2S)—N-[(1S)-1-cyano-2-(4-{1H,2H,3H,5H-pyrido[2,3-e][1,4]oxazepin-7-yl}phenyl)ethyl]-1,4-oxazepane-2-carboxamide] | > 15 | > 2.5 | – | –
14 | Cn1ccc2ncc(-c3ccc(C[C@@H](C#N)NC(=O)[C@@H]4CNCCCO4)cc3)cc21 [Compound A143] | > 15 | > 2.5 | – | –
15 | Cn1c(=O)oc2cc3c(cc21)-c1cc(F)c(CC(C#N)NC(=O)[C@@H]2CNCCCO2)cc1OC3 (stereo partly drawn) [Compound C1, (2S)—N-(1-cyano-2-{4-fluoro-15-methyl-14-oxo-8,13-dioxa-15-azatetracyclo[8.7.0.0^{2,7}0.0^{12,16}]heptadeca-1(10),2(7),3,5,11,16-hexaen-5-yl}ethyl)-1,4-oxazepane-2-carboxamide] | < 5 | > 2.5 | – | –
16 | CO[C@H]1CNC[C@@H](C(=O)N[C@H](C#N)Cc2ccc(-c3cc4c(C)nc(C)cn4c3)cc2F)OC1 [Compound A88-B] | < 5 | < 1 | – | –
17 | CO[C@H]1CCO[C@H](C(=O)N[C@H](C#N)Cc2cc3c(cc2F)-c2ccc(C#N)cc2CO3)CNC1 (single isomer, unassigned) [Compound B13] | < 5 | < 1 | – | –

Row | SMILES | IC50 (human DPP1 enzyme; [1]) [nM] | IC50 (DPP1 in HL-60 cells; [2]) [nM] | IC50 (human DPP1 enzyme) [nM] | IC50 (DPP1 in HL-60 cells; Avg. IC50 (DPP1 Cell IC50 value ranges)) [nM]
18 | CN1C(=O)C2(CCNCC2)c2cc(-c3ccc(C[C@@H](C#N)NC(=O)[C@@H]4CNCCCO4)cc3)ccc21 [Compound 23, (2S)—N-[(1S)-1-cyano-2-(4-{1-methyl-2-oxospiro[indole-3,4′-piperidin]-5-yl}phenyl)ethyl]-1,4-oxazepane-2-carboxamide] | 5 to 15 | > 2.5 | – | –
19 | CN1CCC2(CC1)C(=O)Nc1ccc(-c3ccc(C[C@@H](C#N)NC(=O)[C@@H]4CNCCCO4)cc3)cc12 [Compound 13, (2S)—N-[(1S)-1-cyano-2-(4-{1′-methyl-2-oxo-1H-spiro[indole-3,4′-piperidin]-5-yl}phenyl)ethyl]-1,4-oxazepane-2-carboxamide] | > 15 | > 2.5 | – | –
20 | CO[C@@H]1CCNC[C@@H](C(=O)NC(C#N)Cc2cc3cc(-c4cc5c(C)nc(C)cn5c4)ccc3s2)OC1 (single isomer, unassigned) [Compound A52] | > 15 | > 2.5 | – | –
21 | N#C[C@H](Cc1ccc(-c2ccc3c(c2)[C@]2(CCCN(c4ccsc4)C2)SC3)cc1)NC(=O)[C@@H]1CNCCCO1 [Compound I13] | > 15 | > 2.5 | – | –
22 | CO[C@@H]1CCNC[C@@H](C(=O)N[C@H](C#N)Cc2ccc(-c3ccc4cnn(C)c4c3)cc2F)OC1 [Compound H7, (2S,7R)—N-[(1S)-1-cyano-2-[2-fluoro-4-(1-methylindazol-6-yl)phenyl]ethyl]-7-methoxy-1,4-oxazocane-2-carboxamide] | < 5 | < 1 | – | –
23 | CO[C@H]1CCO[C@H](C(=O)N[C@H](C#N)Cc2ccc(-c3cc4c(C)nc(C)cn4c3)s2)CNC1 [Compound A44, (2S,6S)—N-[(1S)-1-cyano-2-(5-{1,3-dimethylpyrrolo[1,2-a]pyrazin-7-yl}thiophen-2-yl)ethyl]-6-methoxy-1,4-oxazocane-2-carboxamide] | > 15 | > 2.5 | – | –
24 | Cc1c(C(N)=O)sc2ncc(-c3ccc(C[C@@H](C#N)NC(=O)[C@@H]4CNCCCO4)cc3)cc12 [Compound A19, (2S)—N-[(1S)-2-(4-{2-carbamoyl-3-methylthieno[2,3-b]pyridin-5-yl}phenyl)-1-cyanoethyl]-1,4-oxazepane-2-carboxamide] | > 15 | > 2.5 | – | –
25 | N#C[C@H](Cc1ccc(-c2ccc3c(c2)[C@]2(CCCN(C#N)C2)SC3)cc1)NC(=O)[C@@H]1CNCCCO1 [Compound I15] | > 15 | > 2.5 | – | –
26 | C[C@@H]1NC[C@@H](C(=O)N[C@H](C#N)Cc2ccc(-c3ccc4c(F)nn(C)c4c3)cc2F)OC[C@@H]1O [Compound A166] | 5 to 15 | 1 to 2.5 | – | –
27 | N#C[C@H](Cc1cc2c(cc1F)-c1ccc(F)cc1CO2)NC(=O)[C@@H]1CNCCCO1 [Compound B35] | – | – | > 15 | > 2.5
28 | N#C[C@H](Cc1ccc(-c2ccc3c(c2)[C@@]2(CCCN(C4CC4)C2)COC3)cc1)NC(=O)[C@@H]1CNCCCO1 [Compound I12] | 5 to 15 | > 2.5 | – | –
29 | CO[C@@H]1CNC[C@@H](C(=O)N[C@H](C#N)Cc2ccc(-c3ccc4nnn(C)c4c3)cc2)OC1 [Compound H12-B] | < 5 | 1 to 2.5 | – | –
30 | CO[C@@H]1CCNC[C@@H](C(=O)NC(C#N)Cc2cnc(-c3ccc4c(F)nn(C)c4c3)s2)OC1 (mixture of isomers) [Compound A38, (2S,7R)—N-{1-cyano-2-[2-(3-fluoro-1-methylindazol-6-yl)-1,3-thiazol-5-yl]ethyl}-7-methoxy-1,4-oxazocane-2-carboxamide] | 5 to 15 | 1 to 2.5 | – | –
31 | CO[C@@H]1CCNC[C@@H](C(=O)N[C@H](C#N)Cc2ccc(-c3cc4c(C)nc(C)cn4c3)c(F)c2)OC1 [Compound A35, (2S,7R)—N-[(1S)-1-cyano-2-(4-{1,3-dimethylpyrrolo[1,2-a]pyrazin-7-yl}-3-fluorophenyl)ethyl]-7-methoxy-1,4-oxazocane-2-carboxamide] | 5 to 15 | 1 to 2.5 | – | –
32 | COc1ccc(-c2ccc(C[C@@H](C#N)NC(=O)[C@@H]3CNCCCO3)cc2)cc1-n1cnnc1 [Compound 31, (2S)—N-[(1S)-1-cyano-2-[4′-methoxy-3′-(1,2,4-triazol-4-yl)-[1,1′-biphenyl]-4-yl]ethyl]-1,4-oxazepane-2-carboxamide] | > 15 | > 2.5 | – | –
33 | CN1C(=O)CCc2cc(-c3ccc(C[C@@H](C#N)NC(=O)[C@@H]4CNCC[C@@H](F)CO4)cc3)ccc21 [Compound A149] | > 15 | 1 to 2.5 | – | –
